{"source": "patent US9102678B2", "about": "“Compounds and methods for inhibiting mitotic progression” (Millennium Pharmaceuticals, Inc., priority 2004, dated 2015)", "data": [{"biological_target": "T1, recombinant murine Aurora A enzyme (Mus musculus, UniProt P97477)", "T1 construct": "hexahistidine (His6) (N); made in house; host or cells: insect cells, baculovirus (Bac-to-Bac, Invitrogen)", "T1 sequence (P97477 whole entry)": "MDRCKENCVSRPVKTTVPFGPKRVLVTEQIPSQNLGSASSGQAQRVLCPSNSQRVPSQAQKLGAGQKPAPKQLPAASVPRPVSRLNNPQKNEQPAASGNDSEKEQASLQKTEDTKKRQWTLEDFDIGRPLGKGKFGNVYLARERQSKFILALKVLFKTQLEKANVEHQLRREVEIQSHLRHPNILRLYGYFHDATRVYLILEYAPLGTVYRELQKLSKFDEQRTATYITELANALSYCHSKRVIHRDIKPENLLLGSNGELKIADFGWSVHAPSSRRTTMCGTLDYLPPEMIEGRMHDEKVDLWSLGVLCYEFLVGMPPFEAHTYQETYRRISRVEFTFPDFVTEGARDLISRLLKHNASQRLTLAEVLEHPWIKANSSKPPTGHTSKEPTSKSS", "assay": "Aurora A DELFIA Kinase Assay", "type": "biochemical", "conditions": "mouse Aurora A, 250 μM ATP; threshold less than or equal to 100 nM; read-out: IC50", "units": {"IC50": "nM"}, "values": [{"smiles": "COc1ccccc1C1=NCc2cnc(Nc3ccc(C(=O)N4CCN(C)CC4)cc3)nc2-c2ccc(Cl)cc21", "note": "[Compound I-12, {4-[9-Chloro-7-(2-methoxy-phenyl)-5H-benzo[c]pyrimido[4,5-e]azepin-2-ylamino]-phenyl}-(4-methyl-piperazin-1-yl)-methanone]", "IC50": "≤ 100"}, {"smiles": "COc1cccc(F)c1C1=NCc2cnc(Nc3ccc(C(=O)N4CCC(N)CC4)cc3)nc2-c2ccc(Cl)cc21", "note": "[Compound I-241, N-{4[(4-aminopiperidin-1-yl)carbonyl]phenyl}-9-chloro-7-(2-fluoro-6-methoxyphenyl)-5H-pyrimido[5,4-d][2]benzazepin-2-amine]", "IC50": "≤ 100"}, {"smiles": "Nc1ccc(Nc2ncc3c(n2)-c2ccc(Cl)cc2C(c2c(F)cccc2F)=NC3)cc1", "note": "[Compound I-217, N-[9-chloro-7-(2,6-difluorophenyl)-5H-pyrimido[5,4-d][2]benzazepin-2-yl]benzene-1,4-diamine]", "IC50": "≤ 100"}, {"smiles": "CC(=O)c1ccc(Nc2ncc3c(n2)-c2ccc(Cl)cc2C(c2c(F)cccc2F)=NC3)cc1", "note": "[Compound I-337, 1-(4-{[9-chloro-7-(2,6-difluorophenyl)-5H-pyrimido[5,4-d][2]benzazepin-2-yl]amino}phenyl)ethanone]", "IC50": "≤ 100"}, {"smiles": "CN(CCN)C(=O)c1ccc(Nc2ncc3c(n2)-c2ccc(Cl)cc2C(c2c(F)cccc2F)=NC3)cc1", "note": "[Compound I-252, N-(2-aminoethyl)-4-{[9-chloro-7-(2,6-difluorophenyl)-5H-pyrimido[5,4-d][2]benzazepin-2-yl]amino}-N-methylbenzamide]", "IC50": "≤ 100"}, {"smiles": "NC1CCN(C(=O)c2ccc(Nc3ncc4c(n3)-c3ccc(Cl)cc3C(c3ncccc3F)=NC4)cc2)CC1", "note": "[Compound I-304, N-{4[(4-aminopiperidin-1-yl)carbonyl]phenyl}-9-chloro-7-(3-fluoropyridin-2-yl)-5H-pyrimido[5,4-d][2]benzazepin-2-amine]", "IC50": "≤ 100"}, {"smiles": "CNC1CCN(C(=O)c2ccc(Nc3ncc4c(n3)-c3ccc(Cl)cc3C(c3ccccc3OC)=NC4)cc2)C1", "note": "(stereo not drawn) [Compound I-332, 9-chloro-7-(2-methoxyphenyl)-N-(4-{[3-(methylamino)pyrrolidin-1-yl]carbonyl}phenyl)-5H-pyrimido[5,4-d][2]benzazepin-2-amine]", "IC50": "≤ 100"}, {"smiles": "COc1ccccc1C1=NCc2cnc(Nc3ccc(C(=O)N4CCNC(C)C4)cc3)nc2-c2ccc(Cl)cc21", "note": "(stereo not drawn) [Compound I-329, 9-chloro-7-(2-methoxyphenyl)-N-{4-[(3-methylpiperazin-1-yl)carbonyl]phenyl}-5H-pyrimido[5,4-d][2]benzazepin-2-amine]", "IC50": "≤ 100"}, {"smiles": "CNC1CCCN(C(=O)c2ccc(Nc3ncc4c(n3)-c3ccc(Cl)cc3C(c3c(F)cccc3F)=NC4)cc2)C1", "note": "(stereo not drawn) [Compound I-253, 9-chloro-7-(2,6-difluorophenyl)-N-(4-{[3-(methylamino)piperidin-1-yl]carbonyl}phenyl)-5H-pyrimido[5,4-d][2]benzazepin-2-amine]", "IC50": "≤ 100"}, {"smiles": "CN1CCN(C(=O)c2ccc(Nc3ncc4c(n3)-c3ccc(Cl)cc3C(c3c(F)cccc3F)=NC4)cc2)CC1", "note": "[Compound I-184, {4-[9-Chloro-7-(2,6-difluoro-phenyl)-5H-benzo[c]pyrimido[4,5-e]azepin-2-ylamino]-phenyl}-(4-methyl-piperazin-1-yl)-methanone]", "IC50": "≤ 100"}, {"smiles": "CNCCN(C)C(=O)c1ccc(Nc2ncc3c(n2)-c2ccc(Cl)cc2C(c2c(F)cccc2F)=NC3)cc1", "note": "[Compound I-246, 4-{[9-chloro-7-(2,6-difluorophenyl)-5H-pyrimido[5,4-d][2]benzazepin-2-yl]amino}-N-methyl-N-[2-(methylamino)ethyl]benzamide]", "IC50": "≤ 100"}, {"smiles": "O=C(O)c1ccc(Nc2ncc3c(n2)-c2ccc(Cl)cc2C(c2c(F)cccc2Cl)=NC3)cc1", "note": "[Compound I-174, 4-{[9-Chloro-7-(2-chloro-6-fluorophenyl)-5H-pyrimido-[5,4-d][2]benzazepin-2-yl]amino}benzoic acid]", "IC50": "≤ 100"}, {"smiles": "Cc1ccc2c(c1)C(c1ccccc1F)=NCc1cnc(Nc3ccc(C(=O)NCCN4CCOCC4)cc3)nc1-2", "note": "[Compound I-148, 4-[7-(2-Fluoro-phenyl)-9-methyl-5H-benzo[c]pyrimido[4,5-e]azepin-2-ylamino]-N-(2-morpholin-4-yl-ethyl)-benzamide]", "IC50": "≤ 100"}, {"smiles": "CNC1CN(C(=O)c2cc(Nc3ncc4c(n3)-c3ccc(Cl)cc3C(c3c(F)cccc3F)=NC4)ccc2Cl)C1", "note": "[Compound I-291, 9-chloro-N-(4-chloro-3-{[3-(methylamino)azetidin-1-yl]carbonyl}phenyl)-7-(2,6-difluorophenyl)-5H-pyrimido[5,4-d][2]benzazepin-2-amine]", "IC50": "≤ 100"}, {"smiles": "CN(CCCN)C(=O)c1ccc(Nc2ncc3c(n2)-c2ccc(Cl)cc2C(c2c(F)cccc2F)=NC3)cc1", "note": "[Compound I-257, N-(3-aminopropyl)-4-{[9-chloro-7-(2,6-difluorophenyl)-5H-pyrimido[5,4-d][2]benzazepin-2-yl]amino}-N-methylbenzamide]", "IC50": "≤ 100"}, {"smiles": "O=C(O)C1CN=C(c2ccc(Nc3ncc4c(n3)-c3ccc(Cl)cc3C(c3c(F)cccc3F)=NC4)cc2)N1", "note": "(stereo not drawn) [Compound I-306, 2-(4-{[9-chloro-7-(2,6-difluorophenyl)-5H-pyrimido[5,4-d][2]benzazepin-2-yl]amino}phenyl)-4,5-dihydro-1H-imidazole-5-carboxylic acid]", "IC50": "≤ 100"}, {"smiles": "Cc1ccccc1C1=NCc2cnc(Nc3ccc(C(=O)N4CCN(C)CC4)cc3)nc2-c2ccc(Cl)cc21", "note": "[Compound I-11, [4-(9-Chloro-7-o-tolyl-5H-benzo[c]pyrimido[4,5-e]azepin-2-ylamino)-phenyl]-(4-methyl-piperazin-1-yl)-methanone]", "IC50": "≤ 100"}, {"smiles": "O=C(c1ccc(Nc2ncc3c(n2)-c2ccc(Cl)cc2C(c2ccccc2F)=NC3)cc1)N1CCN(CCCN2CCCCC2)CC1", "note": "[Compound I-181, {4-[9-Chloro-7-(2-fluoro-phenyl)-5H-benzo[c]pyrimido[4,5-e]azepin-2-ylamino]-phenyl}-[4-(3-piperidin-1-yl-propyl)-piperazin-1-yl]-methanone]", "IC50": "≤ 100"}, {"smiles": "O=C(NCCN1CCOCC1)c1ccc(Nc2ncc3c(n2)-c2ccc(Cl)cc2C(c2ccccc2Cl)=NC3)cc1", "note": "[Compound I-30, 4-[9-Chloro-7-(2-chloro-phenyl)-5H-benzo[c]pyrimido[4,5-e]azepin-2-ylamino]-N-(2-morpholin-4-yl-ethyl)-benzamide]", "IC50": "≤ 100"}, {"smiles": "O=C(c1ccc(Nc2ncc3c(n2)-c2ccc(Cl)cc2C(c2ccccc2F)=NC3)cc1)N1CCN(CCN2CCCC2)CC1", "note": "[Compound I-171, 9-Chloro-7-(2-fluorophenyl)-N-(4-{[4-(2-pyrrolidin-1-ylethyl)piperazin-1-yl]carbonyl}phenyl)-5H-pyrimido[5,4-d][2]benzazepin-2-amine]", "IC50": "≤ 100"}, {"smiles": "O=C(c1ccc(Nc2ncc3c(n2)-c2ccc(Cl)cc2C(c2ccccc2F)=NC3)cc1)N1CCN(CCCN2CCCC2)CC1", "note": "[Compound I-188, {4-[9-Chloro-7-(2-fluoro-phenyl)-5H-benzo[c]pyrimido[4,5-e]azepin-2-ylamino]-phenyl}-[4-(3-pyrrolidin-1-yl-propyl)-piperazin-1-yl]-methanone]", "IC50": "≤ 100"}, {"smiles": "Cc1csc(Nc2ncc3c(n2)-c2ccc(C(=O)O)cc2C(c2c(F)cccc2F)=NC3)n1", "note": "[Compound I-357, 7-(2,6-difluorophenyl)-2-[(4-methyl-1,3-thiazol-2-yl)amino]-5H-pyrimido[5,4-d][2]benzazepine-9-carboxylic acid]", "IC50": "≤ 100"}, {"smiles": "NC1CCN(C(=O)c2ccc(Nc3ncc4c(n3)-c3ccc(Cl)cc3C(c3ccccc3C(F)(F)F)=NC4)cc2)CC1", "note": "[Compound I-287, N-{4[(4-aminopiperidin-1-yl)carbonyl]phenyl}-9-chloro-7-[2-(trifluoromethyl)phenyl]-5H-pyrimido[5,4-d][2]benzazepin-2-amine]", "IC50": "≤ 100"}, {"smiles": "COc1cccc(F)c1C1=NCc2cnc(Nc3ccc(C(=O)N4CC(N(C)C)C4)cc3)nc2-c2ccc(Cl)cc21", "note": "[Compound I-179, 9-Chloro-N-(4-{[3-(dimethylamino)azetidin-1-yl]carbonyl}phenyl)-7-(2-fluoro-6-methoxyphenyl)-5H-pyrimido[5,4-d][2]benzazepin-2-amine]", "IC50": "≤ 100"}, {"smiles": "CN(C)C1CCN(C(=O)c2ccc(Nc3ncc4c(n3)-c3ccc(Cl)cc3C(c3c(F)cccc3F)=NC4)cc2)CC1", "note": "[Compound I-183, {4-[9-Chloro-7-(2,6-difluoro-phenyl)-5H-benzo[c]pyrimido[4,5-e]azepin-2-ylamino]-phenyl}-(4-dimethylamino-piperidin-1-yl)-methanone]", "IC50": "≤ 100"}, {"smiles": "CC1CN(C(=O)c2ccc(Nc3ncc4c(n3)-c3ccc(Cl)cc3C(c3ccccc3F)=NC4)cc2)CC(C)N1", "note": "(stereo not drawn) [Compound I-111, {4-[9-Chloro-7-(2-fluoro-phenyl)-5H-benzo[c]pyrimido[4,5-e]azepin-2-ylamino]-phenyl}-(3,5-dimethyl-piperazin-1-yl)-methanone]", "IC50": "≤ 100"}, {"smiles": "CN(C)C1CN(C(=N)NC(=O)c2ccc(Nc3ncc4c(n3)-c3ccc(Cl)cc3C(c3c(F)cccc3F)=NC4)cc2)C1", "note": "[Compound I-259, 4-{[9-chloro-7-(2,6-difluorophenyl)-5H-pyrimido[5,4-d][2]benzazepin-2-yl]amino}-N-[[3-(dimethylamino)azetidin-1-yl](imino)methyl]benzamide]", "IC50": "≤ 100"}, {"smiles": "CC1CN(C(=O)c2ccc(Nc3ncc4c(n3)-c3ccc(Cl)cc3C(c3ccccc3F)=NC4)cc2)CCN1", "note": "(stereo not drawn) [Compound I-113, {4-[9-Chloro-7-(2-fluoro-phenyl)-5H-benzo[c]pyrimido[4,5-e]azepin-2-ylamino]-phenyl}-(3-methyl-piperazin-1-yl)-methanone]", "IC50": "≤ 100"}, {"smiles": "CN1CCN(CCCNC(=O)Cc2cccc(Nc3ncc4c(n3)-c3ccc(Cl)cc3C(c3ccccc3F)=NC4)c2)CC1", "note": "[Compound I-25, 2-{3-[9-Chloro-7-(2-fluoro-phenyl)-5H-benzo[c]pyrimido[4,5-e]azepin-2-ylamino]-phenyl}-N-[3-(4-methyl-piperazin-1-yl)-propyl]-acetamide]", "IC50": "≤ 100"}, {"smiles": "CN(C)C1CCN(C(=N)c2ccc(Nc3ncc4c(n3)-c3ccc(Cl)cc3C(c3c(F)cccc3F)=NC4)cc2)C1", "note": "(stereo not drawn) [Compound I-250, 9-chloro-7-(2,6-difluorophenyl)-N-{4-[[3-(dimethylamino)pyrrolidin-1-yl](imino)methyl]phenyl}-5H-pyrimido[5,4-d][2]benzazepin-2-amine]", "IC50": "≤ 100"}]}]}
